# Key:
# [1] = biological target: T1, Cation-Independent Mannose 6-Phosphate Receptor (sCI-MPR) (Bos taurus, UniProt P08169); experiment: Antagonism of mannose 6-phosphate binding to the CI-M6P receptor (SPR, Biacore); set-up: species or system fetal calf; conditions: mean; SPR at 25° C., sCI-MPR binding to immobilized human β-glucuronidase
# T1 construct: Samples of purified sCI-MPR purified from fetal calf serum; from tissue; host or cells: fetal calf serum
# Procedure: All surface plasmon resonance (SPR) measurements were performed at 25° C. using a Biacore 3000 instrument (BIAcore, Piscataway, N.J.). CM5 research grade sensor chips, surfactant P20 and amine coupling kits were also obtained from BIAcore. Purified human β-glucuronidase was immobilized on CM5 sensor chips following activation of the surface using 1-ethyl-3-(3-dimethylaminopropyl)carbodiimide and N-hydroxysuccinimide as recommended by the manufacturer. Briefly, the proteins were injected onto the activated dextran surface at a concentration of 10-20 μg/mL in 10 mM sodium acetate buffer, pH 4.5 using 10 mM HEPES pH 7.5, 150 mM NaCl and 0.005% (v/v) P20 as the running buffer. After coupling, unreacted N-hydroxysuccinimide ester groups were blocked with ethanolamine. The reference surface was treated in the same way except that protein was omitted. […] The response at equilibrium for each concentration of protein was determined by averaging the response over a 10 sec period within the steady state region of the sensorgram using the BIAevaluation software package (version 4.0.1). […]
# [2] = tested on: thioglycolate-induced leukocyte migration in the peritoneal cavity, C57BI/6 mice; experiment: Thioglycolate-induced peritonitis in the mouse; format: in vivo; conditions: for peritoneal total cell number in untreated mice compared with treated mice: −15 min, 3 h
# Procedure: Germ-free male C57BI/6 mice, weighing in the target range of 21.30±0.39 g (6-7 week-old) were anaesthetised with halothane and then received by intravenous route (iv) increasing doses of the phosphotetrahydropyran test compound (5 or 15 mg/kg, −15 min), dexamethasone (1 mg/kg, −60 min) or the respective vehicle (saline 0.9%, pH 7.4). Peritoneal inflammation was induced by i.p. injection of Brewer's thioglycolate. Thioglycolate was prepared freshly (3%, w/v) in sterile saline, and 1.5 mL was injected into the intraperitoneum cavity (ip). Following 3 h treatment, animals were killed (under anesthesia) by cervical dislocation, and cells were recovered by peritoneal lavage using 5 mL of ice-cold PBS. The lavage contents were immediately stored on ice. Peritoneal exudate cells (PEC) were further diluted in 5 mL of ice-cold PBS. The total cell count was determined on a Neubauer chamber with Turk solution, whereas the differential cell counts were conducted on cytospin preparations. Peritoneal lavage was carefully confirmed to be negative for erythrocytes by microscopy to exclude the possibility that leukocyte accumulation in the peritoneal cavity was due to microbleeding, which may occur during animal preparation.
# Data are expressed as Mean (±SEM) from n individual animals. Statistical analysis of data was carried out using Software Graphpad prism v4. Comparative data were analysed using ANOVA followed by Dunnett's post test and ANOVA (unpaired Student's T tests). Statistical P values less than 0.05 were taken as significant.
# The results of polymorphonuclear (PMN) (A), mononuclear (MN) recruitment (B) and total cells (C) are shown as number of cells per cavity. The results are from a representative experiment with 11 mice. Significant p values for each time point are shown (Dunnett's post test and unpaired T-test).
# [3] = Determination of bioavailability in the rat; format: in vivo; conditions: oral, rats, gavage 10 mg/kg versus intravenously 1 mg/kg, plasma LC-MS
# Procedure: The phosphotetrahydropyran test compound (Formula 1; n=1 and R=2,4-dimethylphenyl) was administered to rats by gavage at 10 mg/kg or intravenously at 1 mg/kg). Blood samples were taken at 15 and 30 min and at 1, 2, 3, 4, 8, 12 and 24 hours. Plasma samples were prepared by the addition of 50% acetonitrile/water (20 μL). Protein precipitation was carried out by the addition of trichloroacetic acid (20% in water, 40 μL), vortexing (20 s) and after storing at 4° C. for 60 minutes, centrifugation (10,000 rpm) in a microcentrifuge for 5 min. The supernatant was subsequently separated and 25 μL injected directly onto the column for LC-MS analysis.
# [4] = tested on: LPS-induced lung inflammation, C57BI/6 mice; experiment: Acute LPS-induced lung inflammation in the mouse; format: in vivo; conditions: for total number of inflammatory cells in BAL fluid versus LPS control group: 15 min prior to LPS, 3 hours after LPS
# Procedure: Age-matched germ-free male C57BI/6 mice (25.30±0.39 g; 6-7 week-old) were transiently anaesthetized with a mixture of isoflurane and oxygen. The vehicle-treated group received intravenous injection (iv) of saline 15 min prior to intra-tracheal instillation (i.t.) of lipopolysaccharide (LPS, 3 mg/kg). Another set of animals received i.v. injection of dexamethasone at 1 mg/kg or 2.5 mg/kg 1 hour prior to LPS. The phosphotetrahydropyran test compound was administered to the animals at 5, 15 and 30 mg/kg (iv) 15 min prior to LPS instillation. A separate group of mice was used as sham (saline/PBS) and was treated with i.v. injection of saline and i.t. injection of PBS (phosphate buffered saline).
# Three hours after the LPS administration, animals were anaesthetized with urethane (25%, […] body weight). A blood sample was collected by cardiac puncture (≅1 mL) and the animals were sacrificed by cervical dislocation. The trachea was cannulated and the lungs were lavaged with 2 mL of PBS containing EDTA (1 mM). The lavaged fluid was harvested by gentle injections and aspirations four times with 0.5 mL each, and centrifuged. The total cell count was determined on a fresh fluid specimen with Turk solution using a Neubauer chamber. Differential cell counts were determined using Cytospin technique. Aliquots of the bronchoalveolar lavage (BAL) supernatants were stored without further treatment at −80° C.
# Slices of each pulmonary lobe were immediately removed from the animal, weighed and either frozen in liquid nitrogen for myeloperoxidase (MPO) assay or placed in the oven for lung oedema evaluation. Determination of MPO activity was used as an index of leukocyte accumulation, where one unit of MPO activity was defined as that degrading 1 μmol hydrogen peroxide/min at 25° C. by the formula MPO (U/g)=Vmax/s×60/0.0113/0.5. Data were presented as MPO activity expressed as U/g wet tissue. To determine pulmonary oedema, the left pulmonary lobes were removed, weighed and dried at 60° C. for 48 h for wet to dry weight ratio measurements.
# [5] = tested on: New Zealand White rabbits, filtering bleb; experiment: Rabbit model of experimental glaucoma filtering surgery; format: in vivo; conditions: intraoperative sponge 3 minutes; PXS-25 40 mg/mL, MMC 0.4 mg/mL
# Procedure: New Zealand White rabbits (18) were subjected to a modified glaucoma filtering surgery in the left eye. The animals received either intraoperative PXS-25 at a concentration of 40 mg/mL (Group 1), intraoperative Mitomycin C (MMC) at a concentration of 0.4 mg/mL (Group 2), or intraoperative test compound and Mitomycin C (MMC) (Group 3).
# Filtration surgery was performed on the left eye only. MMC, test compound (Formula 1) or the combination were delivered with a large sponge measuring 8×10 mm (dry size) cut from a Weck-Cel prior to cutting the flap and sclerostomy. The sponge pieces were placed between the conjunctiva and sclera over the determined filtration site for 3 minutes. The area was then thoroughly irrigated with 30 mL of physiologic saline. The animals were reviewed on the first day after surgery, and then weekly until bleb failure. The study was terminated after the 8 week. Fluorescein tracer studies was performed as follows. Sodium fluorescein was injected into the anterior chamber and the drainage pathway using a slit lamp based digital video camera system was recorded. The animals were sacrificed and tissue sections were prepared for immunohistochemically staining for signs of scarring and inflammation.
# T1 sequence (P08169 45-2313 limits assumed): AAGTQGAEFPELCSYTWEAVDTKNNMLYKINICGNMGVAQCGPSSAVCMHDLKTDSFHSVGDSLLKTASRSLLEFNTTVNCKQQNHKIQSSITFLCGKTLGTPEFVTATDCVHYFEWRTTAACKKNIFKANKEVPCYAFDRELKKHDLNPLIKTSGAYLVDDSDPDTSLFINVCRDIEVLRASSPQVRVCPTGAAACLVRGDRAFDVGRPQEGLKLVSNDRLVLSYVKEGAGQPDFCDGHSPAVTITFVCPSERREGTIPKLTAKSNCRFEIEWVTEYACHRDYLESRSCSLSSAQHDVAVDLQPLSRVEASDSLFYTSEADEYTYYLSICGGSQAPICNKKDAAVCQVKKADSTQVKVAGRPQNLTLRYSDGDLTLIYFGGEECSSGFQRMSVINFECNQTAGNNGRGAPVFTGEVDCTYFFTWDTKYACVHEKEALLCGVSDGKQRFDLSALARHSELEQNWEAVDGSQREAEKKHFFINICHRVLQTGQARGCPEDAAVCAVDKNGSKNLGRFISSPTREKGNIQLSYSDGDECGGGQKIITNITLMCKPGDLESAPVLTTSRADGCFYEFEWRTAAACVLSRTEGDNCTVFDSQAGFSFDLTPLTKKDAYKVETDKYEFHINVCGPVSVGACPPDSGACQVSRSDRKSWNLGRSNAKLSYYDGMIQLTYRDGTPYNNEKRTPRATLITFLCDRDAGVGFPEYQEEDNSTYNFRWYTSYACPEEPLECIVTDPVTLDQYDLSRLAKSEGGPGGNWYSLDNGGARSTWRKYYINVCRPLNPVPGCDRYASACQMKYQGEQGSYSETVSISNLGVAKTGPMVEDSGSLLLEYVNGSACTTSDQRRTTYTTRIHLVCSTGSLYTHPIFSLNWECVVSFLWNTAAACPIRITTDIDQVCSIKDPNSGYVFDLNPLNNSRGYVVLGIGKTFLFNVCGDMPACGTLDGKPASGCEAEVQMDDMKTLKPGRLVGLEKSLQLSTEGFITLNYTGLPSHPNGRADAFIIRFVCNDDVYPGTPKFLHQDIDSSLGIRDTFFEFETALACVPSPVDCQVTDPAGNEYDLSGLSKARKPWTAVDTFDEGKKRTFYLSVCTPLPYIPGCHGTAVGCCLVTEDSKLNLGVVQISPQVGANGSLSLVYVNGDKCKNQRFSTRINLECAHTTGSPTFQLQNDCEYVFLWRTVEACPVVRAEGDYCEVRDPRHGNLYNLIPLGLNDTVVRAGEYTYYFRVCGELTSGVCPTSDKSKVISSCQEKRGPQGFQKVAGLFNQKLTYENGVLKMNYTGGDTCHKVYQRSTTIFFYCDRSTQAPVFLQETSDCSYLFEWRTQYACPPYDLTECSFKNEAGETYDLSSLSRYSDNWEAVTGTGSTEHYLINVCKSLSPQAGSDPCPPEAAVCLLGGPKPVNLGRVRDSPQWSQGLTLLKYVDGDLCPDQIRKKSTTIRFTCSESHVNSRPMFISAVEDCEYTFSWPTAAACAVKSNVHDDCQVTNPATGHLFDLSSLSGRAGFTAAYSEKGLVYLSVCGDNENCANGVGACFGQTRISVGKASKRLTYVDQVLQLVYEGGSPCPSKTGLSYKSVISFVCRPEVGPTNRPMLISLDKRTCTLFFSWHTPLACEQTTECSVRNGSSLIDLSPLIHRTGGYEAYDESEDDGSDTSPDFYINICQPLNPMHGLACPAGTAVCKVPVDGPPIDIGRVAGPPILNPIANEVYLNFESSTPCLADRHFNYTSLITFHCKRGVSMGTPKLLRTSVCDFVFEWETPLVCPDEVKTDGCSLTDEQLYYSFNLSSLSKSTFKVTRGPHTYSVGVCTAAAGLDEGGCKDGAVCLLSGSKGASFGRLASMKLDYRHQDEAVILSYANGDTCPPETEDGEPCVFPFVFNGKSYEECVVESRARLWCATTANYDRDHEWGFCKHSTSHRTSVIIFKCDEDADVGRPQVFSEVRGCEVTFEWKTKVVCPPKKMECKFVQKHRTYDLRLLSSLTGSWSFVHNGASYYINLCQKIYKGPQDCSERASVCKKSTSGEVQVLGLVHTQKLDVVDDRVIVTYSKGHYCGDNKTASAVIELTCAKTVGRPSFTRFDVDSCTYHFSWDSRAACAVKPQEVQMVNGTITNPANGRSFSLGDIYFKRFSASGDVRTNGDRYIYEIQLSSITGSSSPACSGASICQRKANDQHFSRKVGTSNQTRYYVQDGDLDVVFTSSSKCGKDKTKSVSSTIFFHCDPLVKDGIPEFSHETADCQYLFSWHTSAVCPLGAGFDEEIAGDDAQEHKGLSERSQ
Ki [1] [µM],bioavailability [3] [%],SMILES,peritoneal total cell number in untreated mice compared with treated mice ([2]; 5 mg/kg iv),peritoneal total cell number in untreated mice compared with treated mice ([2]; 15 mg/kg iv),"anti-inflammatory actions (leukocyte migration into the peritoneal cavity) ([2]; iv pre-treatment, 3 h after thioglycolate)",total number of inflammatory cells in BAL fluid versus LPS control group ([4]; 5 mg/kg iv),total number of inflammatory cells in BAL fluid versus LPS control group ([4]; 15 mg/kg iv),total number of inflammatory cells in BAL fluid versus LPS control group ([4]; 30 mg/kg iv),"decrease of neutrophils number in BAL fluid compared to vehicle (saline)-control group ([4]; iv pre-treatment 15 min prior to LPS, P<0.05) [%]",tissue surrounding the site of surgical intervention / bleb [5]
7.9,7.7,"Cc1ccc(COC2O[C@H](CCP(=O)(O)O)[C@@H](O)[C@H](O)[C@@H]2O)c(C)c1 (some centres unmarked) [Formula 1; n=1 and R=2,4-dimethylphenyl]",markedly higher,markedly higher,Dose-dependent anti-inflammatory actions,not significantly different,significant inhibition,not significantly different,86.7,
,,CO[C@@]12[C@H](COC(N)=O)C3=C(C(=O)C(C)=C(N)C3=O)N1C[C@@H]1N[C@@H]12 [Mitomycin C],,,,,,,,very visible dead tissue surrounding the bleb
19,,"O=C[C@@H](O)[C@@H](O)[C@H](O)[C@H](O)COP(=O)(O)O [mannose-6-phosphate, reference compound]",,,,,,,,
